Data taken from patent US8067454B2, “Thio-substituted Anthra [1, 2-d] imidazole- 6, 11-dione derivatives, preparation method and application thereof” (National Defense Medical Center, priority 2010, dated 2011).

Tests used:
MCF7 = test: NCI 60-cell drug screen, Breast Cancer MCF7; type: cell-based, human; conditions: 1.00E−5 Molar
OVCAR-5 = test: NCI 60-cell drug screen, Ovarian Cancer OVCAR-5; type: cell-based, human; conditions: 1.00E−5 Molar
NCI-H460 = test: NCI 60-cell drug screen, Non-Small Cell Lung Cancer NCI-H460; type: cell-based, human; conditions: 1.00E−5 Molar
SVG p12 = test: MTT assay, SVG p12 normal cell; conditions: concentration 10 μM, normal cell
U251 = test: NCI 60-cell drug screen, CNS Cancer U251; type: cell-based, human; conditions: 1.00E−5 Molar
TK-10 = test: NCI 60-cell drug screen, Renal Cancer TK-10; type: cell-based, human; conditions: 1.00E−5 Molar
LOX IMVI = test: NCI 60-cell drug screen, Melanoma LOX IMVI; type: cell-based, human; conditions: 1.00E−5 Molar
DU-145 = test: NCI 60-cell drug screen, Prostate Cancer DU-145; type: cell-based, human; conditions: 1.00E−5 Molar
SK-MEL-2 = test: NCI 60-cell drug screen, Melanoma SK-MEL-2; type: cell-based, human; conditions: 1.00E−5 Molar
BT-549 = test: NCI 60-cell drug screen, Breast Cancer BT-549; type: cell-based, human; conditions: 1.00E−5 Molar
MOLT-4 = test: NCI 60-cell drug screen, Leukemia MOLT-4; type: cell-based, human; conditions: 1.00E−5 Molar
PC-3 = test: NCI 60-cell drug screen, Prostate Cancer PC-3; type: cell-based, human; conditions: 1.00E−5 Molar
SF-539 = test: NCI 60-cell drug screen, CNS Cancer SF-539; type: cell-based, human; conditions: 1.00E−5 Molar
SF-295 = test: NCI 60-cell drug screen, CNS Cancer SF-295; type: cell-based, human; conditions: 1.00E−5 Molar
GBM8401 = test: MTT assay, GBM8401 tumor cell; conditions: concentration 10 μM, tumor cell
EKVX = test: NCI 60-cell drug screen, Non-Small Cell Lung Cancer EKVX; type: cell-based, human; conditions: 1.00E−5 Molar
UACC-62 = test: NCI 60-cell drug screen, Melanoma UACC-62; type: cell-based, human; conditions: 1.00E−5 Molar
K-562 = test: NCI 60-cell drug screen, Leukemia K-562; type: cell-based, human; conditions: 1.00E−5 Molar
M14 = test: NCI 60-cell drug screen, Melanoma M14; type: cell-based, human; conditions: 1.00E−5 Molar
A549/ATCC = test: NCI 60-cell drug screen, Non-Small Cell Lung Cancer A549/ATCC; type: cell-based, human; conditions: 1.00E−5 Molar
SW-620 = test: NCI 60-cell drug screen, Colon Cancer SW-620; type: cell-based, human; conditions: 1.00E−5 Molar
MALME-3M = test: NCI 60-cell drug screen, Melanoma MALME-3M; type: cell-based, human; conditions: 1.00E−5 Molar
RPMI-8226 = test: NCI 60-cell drug screen, Leukemia RPMI-8226; type: cell-based, human; conditions: 1.00E−5 Molar
IGROV1 = test: NCI 60-cell drug screen, Ovarian Cancer IGROV1; type: cell-based, human; conditions: 1.00E−5 Molar
COLO 205 = test: NCI 60-cell drug screen, Colon Cancer COLO 205; type: cell-based, human; conditions: 1.00E−5 Molar
SF-268 = test: NCI 60-cell drug screen, CNS Cancer SF-268; type: cell-based, human; conditions: 1.00E−5 Molar
SK-MEL-5 = test: NCI 60-cell drug screen, Melanoma SK-MEL-5; type: cell-based, human; conditions: 1.00E−5 Molar
SK-OV-3 = test: NCI 60-cell drug screen, Ovarian Cancer SK-OV-3; type: cell-based, human; conditions: 1.00E−5 Molar
HCC-2998 = test: NCI 60-cell drug screen, Colon Cancer HCC-2998; type: cell-based, human; conditions: 1.00E−5 Molar
786-0 = test: NCI 60-cell drug screen, Renal Cancer 786-0; type: cell-based, human; conditions: 1.00E−5 Molar
SN12C = test: NCI 60-cell drug screen, Renal Cancer SN12C; type: cell-based, human; conditions: 1.00E−5 Molar
HCT-15 = test: NCI 60-cell drug screen, Colon Cancer HCT-15; type: cell-based, human; conditions: 1.00E−5 Molar
SR = test: NCI 60-cell drug screen, Leukemia SR; type: cell-based, human; conditions: 1.00E−5 Molar
NCI-H23 = test: NCI 60-cell drug screen, Non-Small Cell Lung Cancer NCI-H23; type: cell-based, human; conditions: 1.00E−5 Molar
NCI-H322M = test: NCI 60-cell drug screen, Non-Small Cell Lung Cancer NCI-H322M; type: cell-based, human; conditions: 1.00E−5 Molar
MDA-MB-231/ATCC = test: NCI 60-cell drug screen, Breast Cancer MDA-MB-231/ATCC; type: cell-based, human; conditions: 1.00E−5 Molar
HL-60(TB) = test: NCI 60-cell drug screen, Leukemia HL-60(TB); type: cell-based, human; conditions: 1.00E−5 Molar
HOP-62 = test: NCI 60-cell drug screen, Non-Small Cell Lung Cancer HOP-62; type: cell-based, human; conditions: 1.00E−5 Molar
OVCAR-4 = test: NCI 60-cell drug screen, Ovarian Cancer OVCAR-4; type: cell-based, human; conditions: 1.00E−5 Molar
RXF 393 = test: NCI 60-cell drug screen, Renal Cancer RXF 393; type: cell-based, human; conditions: 1.00E−5 Molar
NCI-H226 = test: NCI 60-cell drug screen, Non-Small Cell Lung Cancer NCI-H226; type: cell-based, human; conditions: 1.00E−5 Molar
MDA-MB-435 = test: NCI 60-cell drug screen, Melanoma MDA-MB-435; type: cell-based, human; conditions: 1.00E−5 Molar
KM12 = test: NCI 60-cell drug screen, Colon Cancer KM12; type: cell-based, human; conditions: 1.00E−5 Molar
GBM8901 = test: MTT assay, GBM8901 tumor cell; conditions: concentration 10 μM, tumor cell
HOP-92 = test: NCI 60-cell drug screen, Non-Small Cell Lung Cancer HOP-92; type: cell-based, human; conditions: 1.00E−5 Molar
NCI-H522 = test: NCI 60-cell drug screen, Non-Small Cell Lung Cancer NCI-H522; type: cell-based, human; conditions: 1.00E−5 Molar
UO-31 = test: NCI 60-cell drug screen, Renal Cancer UO-31; type: cell-based, human; conditions: 1.00E−5 Molar
SNB-19 = test: NCI 60-cell drug screen, CNS Cancer SNB-19; type: cell-based, human; conditions: 1.00E−5 Molar
SK-MEL-28 = test: NCI 60-cell drug screen, Melanoma SK-MEL-28; type: cell-based, human; conditions: 1.00E−5 Molar
A498 = test: NCI 60-cell drug screen, Renal Cancer A498; type: cell-based, human; conditions: 1.00E−5 Molar
SNB-75 = test: NCI 60-cell drug screen, CNS Cancer SNB-75; type: cell-based, human; conditions: 1.00E−5 Molar
ACHN = test: NCI 60-cell drug screen, Renal Cancer ACHN; type: cell-based, human; conditions: 1.00E−5 Molar
HCT-116 = test: NCI 60-cell drug screen, Colon Cancer HCT-116; type: cell-based, human; conditions: 1.00E−5 Molar

CN(C)CCCSc1nc2ccc3c(c2[nH]1)C(=O)c1ccccc1C3=O [f1-15, 2-(3-(dimethylamino)propylthio)-1H-anthra[1,2-d]imidazole-6,11-dione]
Growth Percent, MCF7 (MCF7): 16.92% | Growth Percent, OVCAR-5 (OVCAR-5): 87.88% | Growth Percent, NCI-H460 (NCI-H460): 23.20% | Cell survival rate (%) SVG p12 (SVG p12): 11 ± 6% | Growth Percent, U251 (U251): 74.11% | Growth Percent, TK-10 (TK-10): 31.68% | Growth Percent, LOX IMVI (LOX IMVI): 28.57% | Growth Percent, DU-145 (DU-145): 36.35% | Growth Percent, SK-MEL-2 (SK-MEL-2): 80.03% | Growth Percent, BT-549 (BT-549): 75.75% | Growth Percent, MOLT-4 (MOLT-4): −2.90% | Growth Percent, PC-3 (PC-3): 36.71% | Growth Percent, SF-539 (SF-539): 57.50% | Growth Percent, SF-295 (SF-295): 76.03% | Cell survival rate (%) GBM8401 (GBM8401): 8 ± 11% | Growth Percent, EKVX (EKVX): 65.23% | Growth Percent, UACC-62 (UACC-62): 75.39% | Growth Percent, K-562 (K-562): −31.59% | Growth Percent, M14 (M14): 77.32% | Growth Percent, A549/ATCC (A549/ATCC): 51.59% | Growth Percent, SW-620 (SW-620): 26.35% | Growth Percent, MALME-3M (MALME-3M): 88.23% | Growth Percent, RPMI-8226 (RPMI-8226): −13.69% | Growth Percent, IGROV1 (IGROV1): 30.89% | Growth Percent, COLO 205 (COLO 205): 62.01% | Growth Percent, SF-268 (SF-268): 53.13% | Growth Percent, SK-MEL-5 (SK-MEL-5): 62.55% | Growth Percent, SK-OV-3 (SK-OV-3): 32.36% | Growth Percent, HCC-2998 (HCC-2998): 72.67% | Growth Percent, 786-0 (786-0): 77.63% | Growth Percent, SN12C (SN12C): 37.66% | Growth Percent, HCT-15 (HCT-15): 36.27% | Growth Percent, SR (SR): 3.09% | Growth Percent, NCI-H23 (NCI-H23): 53.83% | Growth Percent, NCI-H322M (NCI-H322M): 70.75% | Growth Percent, MDA-MB-231/ATCC (MDA-MB-231/ATCC): 56.24% | Growth Percent, HL-60(TB) (HL-60(TB)): 12.74% | Growth Percent, HOP-62 (HOP-62): 51.96% | Growth Percent, OVCAR-4 (OVCAR-4): 29.72% | Growth Percent, RXF 393 (RXF 393): 38.40% | Growth Percent, NCI-H226 (NCI-H226): 74.10% | Growth Percent, MDA-MB-435 (MDA-MB-435): 72.18% | Growth Percent, KM12 (KM12): 20.36% | Cell survival rate (%) GBM8901 (GBM8901): 63 ± 4% | Growth Percent, HOP-92 (HOP-92): 15.99% | Growth Percent, NCI-H522 (NCI-H522): 69.28% | Growth Percent, UO-31 (UO-31): 25.50% | Growth Percent, SNB-19 (SNB-19): 79.67% | Growth Percent, SK-MEL-28 (SK-MEL-28): 102.07% | Growth Percent, A498 (A498): 76.16% | Growth Percent, SNB-75 (SNB-75): 50.54% | Growth Percent, ACHN (ACHN): 24.30% | Growth Percent, HCT-116 (HCT-116): 27.58%
